Our source for the activity coefficient values is the NIST ThermoML archive (doi:10.1016/j.jct.2015.05.014).

Structures are written as SMILES. Numbers after ± are expanded uncertainties.

A short description of the data set: activity coefficient (dimensionless); of the first substance listed, at infinite dilution; xn = mol fraction of the nth substance listed. The following applies: 100 kPa, Liquid, Chromatography, x1 = 0.

Take `Cc1ccccc1C` [1,2-dimethylbenzene] + CC(O)C(=O)[O-].CC[N+]1(C)CCCC1: the activity coefficient worked out at 8.23 ± 0.71 (318.15 K); 8.33 ± 0.72 (328.15 K); 8.46 ± 0.73 (338.15 K); 8.57 ± 0.74 (348.15 K); 8.69 ± 0.75 (358.15 K); 8.9 ± 0.8 (368.15 K).

Regarding `Cc1cccc(C)c1` [1,3-dimethylbenzene] + CC(O)C(=O)[O-].CC[N+]1(C)CCCC1, the activity coefficient is, setting by setting: (318.15 K) 10.1 ± 0.9; (328.15 K) 10.2 ± 0.9; (338.15 K) 10.4 ± 0.9; (348.15 K) 10.4 ± 0.9; (358.15 K) 10.5 ± 0.9; (368.15 K) 10.7 ± 0.9.

In the case of `c1ccsc1` [thiophene] + CC(O)C(=O)[O-].CC[N+]1(C)CCCC1, the activity coefficient reads like this: (318.15 K) 1.29 ± 0.11; (328.15 K) 1.38 ± 0.12; (338.15 K) 1.47 ± 0.12; (348.15 K) 1.56 ± 0.13; (358.15 K) 1.64 ± 0.14; (368.15 K) 1.75 ± 0.15.

For `C#CCCC` [1-pentyne] + CC(O)C(=O)[O-].CC[N+]1(C)CCCC1, the activity coefficient (308.15 K) stood at 3.18 ± 0.27; the activity coefficient (318.15 K) came to 3.43 ± 0.3; the activity coefficient (328.15 K) was 3.66 ± 0.32; the activity coefficient (338.15 K) came to 3.95 ± 0.34; the activity coefficient (348.15 K) is 4.2 ± 0.4; the activity coefficient (358.15 K) is 4.46 ± 0.38. For the same molecule, for the setting “368.15 K”, the activity coefficient was found to be 4.69 ± 0.4.

With `CCCC(=O)OC` [methyl butanoate] + CC(O)C(=O)[O-].CC[N+]1(C)CCCC1, the activity coefficient stood at 7.46 ± 0.64 (318.15 K); 7.56 ± 0.65 (328.15 K); 7.6 ± 0.66 (338.15 K); 7.74 ± 0.67 (348.15 K); 7.84 ± 0.68 (358.15 K); 8.01 ± 0.69 (368.15 K). In addition, the activity coefficient (378.15 K) came to 8.08 ± 0.7.

As to `CC1CCCCC1` [methylcyclohexane] + CC(O)C(=O)[O-].CC[N+]1(C)CCCC1, the activity coefficient reads like this: (308.15 K) 87.4 ± 7.6; (318.15 K) 80.7 ± 7; (328.15 K) 75 ± 6.5; (338.15 K) 69.7 ± 6; (348.15 K) 65.7 ± 5.7; (358.15 K) 61.8 ± 5.3. In addition, where the note is “368.15 K”, the activity coefficient turned out to be 57.8 ± 5.

For `COC(C)(C)C` [2-methoxy-2-methylpropane] + CC(O)C(=O)[O-].CC[N+]1(C)CCCC1, the activity coefficient reads like this: (308.15 K) 18.1 ± 1.6; (318.15 K) 18 ± 1.6; (328.15 K) 17.9 ± 1.5; (338.15 K) 17.9 ± 1.5; (348.15 K) 17.8 ± 1.5; (358.15 K) 17.7 ± 1.5. In addition, the activity coefficient (368.15 K) came to 17.7 ± 1.5.

On to `C=CCCCCCC` [oct-1-ene] + CC(O)C(=O)[O-].CC[N+]1(C)CCCC1, for which the activity coefficient (308.15 K) came out at 145 ± 13; the activity coefficient (318.15 K) turned out to be 136 ± 12; the activity coefficient (328.15 K) came out at 127 ± 11; the activity coefficient (338.15 K) worked out at 120 ± 10; the activity coefficient (348.15 K) is 114 ± 10; the activity coefficient (358.15 K) is 108 ± 9. Further, the activity coefficient (368.15 K) turned out to be 103 ± 9.

On to `C1CCCC1` [cyclopentane] + CC(O)C(=O)[O-].CC[N+]1(C)CCCC1, for which the activity coefficient turned out to be 31.7 ± 2.7 (308.15 K); 29.7 ± 2.6 (318.15 K); 28.2 ± 2.4 (328.15 K); 26.9 ± 2.3 (338.15 K); 25.7 ± 2.2 (348.15 K); 24.7 ± 2.1 (358.15 K). Besides, under “368.15 K”, the activity coefficient worked out at 23.5 ± 2.

Take `C=CCCCC` [hex-1-ene] + CC(O)C(=O)[O-].CC[N+]1(C)CCCC1: the activity coefficient was 56 ± 4.8 (308.15 K); 53.3 ± 4.6 (318.15 K); 50.9 ± 4.4 (328.15 K); 48.7 ± 4.2 (338.15 K); 46.6 ± 4 (348.15 K); 44.7 ± 3.9 (358.15 K). The activity coefficient (368.15 K) was 42.9 ± 3.7.

As for `CCCCC(C)=O` [2-hexanone] + CC(O)C(=O)[O-].CC[N+]1(C)CCCC1, the activity coefficient (318.15 K) was 7.09 ± 0.61; the activity coefficient (328.15 K) was 7.16 ± 0.62; the activity coefficient (338.15 K) was determined as 7.22 ± 0.62; the activity coefficient (348.15 K) came to 7.31 ± 0.63; the activity coefficient (358.15 K) is 7.39 ± 0.64; the activity coefficient (368.15 K) amounted to 7.54 ± 0.65.

As for `CC(C)OC(C)C` [diisopropyl ether] + CC(O)C(=O)[O-].CC[N+]1(C)CCCC1, the activity coefficient amounted to 55.3 ± 4.8 (308.15 K); 53.6 ± 4.6 (318.15 K); 52 ± 4.5 (328.15 K); 50.1 ± 4.3 (338.15 K); 48.6 ± 4.2 (348.15 K); 47.2 ± 4.1 (358.15 K). The activity coefficient (368.15 K) amounted to 45.9 ± 4.

In the case of `COC(C)=O` [methyl ethanoate] + CC(O)C(=O)[O-].CC[N+]1(C)CCCC1, the activity coefficient is, setting by setting: (318.15 K) 2.95 ± 0.25; (328.15 K) 3.03 ± 0.26; (338.15 K) 3.1 ± 0.27; (348.15 K) 3.18 ± 0.27; (358.15 K) 3.25 ± 0.28; (368.15 K) 3.37 ± 0.29. Further, the activity coefficient (378.15 K) turned out to be 3.45 ± 0.3.

Regarding `CCCCCC` [hexane] + CC(O)C(=O)[O-].CC[N+]1(C)CCCC1, the activity coefficient runs as follows: (308.15 K) 135 ± 12; (318.15 K) 125 ± 11; (328.15 K) 114 ± 10; (338.15 K) 107 ± 9; (348.15 K) 99.9 ± 8.7; (358.15 K) 94.6 ± 8.2. Moreover, where the note is “368.15 K”, the activity coefficient came to 88.7 ± 7.7.

`CC#N` [acetonitrile] + CC(O)C(=O)[O-].CC[N+]1(C)CCCC1: the activity coefficient (318.15 K) was 0.773 ± 0.065; the activity coefficient (328.15 K) is 0.808 ± 0.068; the activity coefficient (338.15 K) was 0.844 ± 0.07; the activity coefficient (348.15 K) came out at 0.88 ± 0.07; the activity coefficient (358.15 K) amounted to 0.915 ± 0.076; the activity coefficient (368.15 K) was 0.962 ± 0.079.

For the molecule `CCC(C)CC` [3-methylpentane] + CC(O)C(=O)[O-].CC[N+]1(C)CCCC1, the activity coefficient is, setting by setting: (308.15 K) 122 ± 11; (318.15 K) 111 ± 10; (328.15 K) 102 ± 9; (338.15 K) 94.5 ± 8.2; (348.15 K) 88.7 ± 7.7; (358.15 K) 83.5 ± 7.2. Where the note is “368.15 K”, the activity coefficient amounted to 78.4 ± 6.8.

As to `CCCCCCCCC` [nonane] + CC(O)C(=O)[O-].CC[N+]1(C)CCCC1, the activity coefficient turned out to be 518 ± 45 (308.15 K); 474 ± 41 (318.15 K); 423 ± 37 (328.15 K); 389 ± 34 (338.15 K); 358 ± 31 (348.15 K); 326 ± 28 (358.15 K). For the same molecule, for the setting “368.15 K”, the activity coefficient turned out to be 297 ± 26.

Turning to `C#CCCCCC` [1-heptyne] + CC(O)C(=O)[O-].CC[N+]1(C)CCCC1, the activity coefficient was determined as 8.33 ± 0.72 (308.15 K); 8.83 ± 0.76 (318.15 K); 9.25 ± 0.8 (328.15 K); 9.82 ± 0.85 (338.15 K); 10.3 ± 0.9 (348.15 K); 10.7 ± 0.9 (358.15 K). For the same molecule, the activity coefficient (368.15 K) worked out at 11.2 ± 1.

Consider `CCCOCCC` [dipropyl ether] + CC(O)C(=O)[O-].CC[N+]1(C)CCCC1, for which the activity coefficient (308.15 K) was determined as 52.1 ± 4.5; the activity coefficient (318.15 K) worked out at 50.3 ± 4.4; the activity coefficient (328.15 K) amounted to 48.2 ± 4.2; the activity coefficient (338.15 K) worked out at 46.2 ± 4; the activity coefficient (348.15 K) came out at 44.8 ± 3.9; the activity coefficient (358.15 K) was 43.2 ± 3.7. Further, for the setting “368.15 K”, the activity coefficient is 41.9 ± 3.6.

For `CCOC(C)=O` [ethyl acetate] + CC(O)C(=O)[O-].CC[N+]1(C)CCCC1, the activity coefficient is 5.04 ± 0.43 (318.15 K); 5.14 ± 0.44 (328.15 K); 5.23 ± 0.45 (338.15 K); 5.32 ± 0.46 (348.15 K); 5.43 ± 0.47 (358.15 K); 5.56 ± 0.48 (368.15 K). In addition, where the note is “378.15 K”, the activity coefficient amounted to 5.66 ± 0.49.

On to `C=CCCCCC` [1-heptene] + CC(O)C(=O)[O-].CC[N+]1(C)CCCC1, for which the activity coefficient worked out at 88.8 ± 7.7 (308.15 K); 83.8 ± 7.3 (318.15 K); 78.7 ± 6.8 (328.15 K); 75.2 ± 6.5 (338.15 K); 71.9 ± 6.2 (348.15 K); 68.8 ± 6 (358.15 K). Also, the activity coefficient (368.15 K) was 66.4 ± 5.7.

Turning to `C#CCCCCCC` [1-octyne] + CC(O)C(=O)[O-].CC[N+]1(C)CCCC1, the activity coefficient is 13.6 ± 1.2 (308.15 K); 14.2 ± 1.2 (318.15 K); 14.7 ± 1.3 (328.15 K); 15.5 ± 1.3 (338.15 K); 16 ± 1.4 (348.15 K); 16.6 ± 1.4 (358.15 K). For the same molecule, the activity coefficient (368.15 K) was found to be 17.1 ± 1.5.

As for `CCc1ccccc1` [ethylbenzene] + CC(O)C(=O)[O-].CC[N+]1(C)CCCC1, the activity coefficient runs as follows: (318.15 K) 9.27 ± 0.8; (328.15 K) 9.36 ± 0.81; (338.15 K) 9.45 ± 0.82; (348.15 K) 9.58 ± 0.83; (358.15 K) 9.68 ± 0.84; (368.15 K) 9.86 ± 0.85.

For the molecule `C1CCCCC1` [cyclohexane] + CC(O)C(=O)[O-].CC[N+]1(C)CCCC1, the activity coefficient was determined as 52.7 ± 4.6 (308.15 K); 48.6 ± 4.2 (318.15 K); 45 ± 3.9 (328.15 K); 42.6 ± 3.7 (338.15 K); 40.6 ± 3.5 (348.15 K); 38.4 ± 3.3 (358.15 K). Moreover, the activity coefficient (368.15 K) turned out to be 36.3 ± 3.1.

Turning to `CCOC(C)(C)C` [2-ethoxy-2-methylpropane] + CC(O)C(=O)[O-].CC[N+]1(C)CCCC1, the activity coefficient is, setting by setting: (308.15 K) 46.2 ± 4; (318.15 K) 45.2 ± 3.9; (328.15 K) 43.9 ± 3.8; (338.15 K) 42.5 ± 3.7; (348.15 K) 41.6 ± 3.6; (358.15 K) 40.7 ± 3.5. In addition, the activity coefficient (368.15 K) is 39.7 ± 3.4.
